# According to US9938261B2, “Heterocyclic compounds and methods of use thereof” (AMBIT BIOSCIENCES CORPORATION, priority 2011, dated 2018):
# How the values were obtained:
# [1] = target: kinase panel containing either 386 or 392 distinct kinases; assay: Kinase selectivity score S10 from competition binding panel; settings: compounds at 10 μM; 386 or 392 distinct kinases
# Protocol: Competition binding assays used herein were developed, validated and performed as described in Fabian et al., Nature Biotechnology 2005, 23, 329-336. Kinases were produced as fusions to T7 phage (See, Fabian et al. or WO04/015142) or alternatively, the kinases were expressed in HEK-293 cells and subsequently tagged with DNA for PCR detection (See, WO08/005310). For the binding assays, streptavidin-coated magnetic beads were treated with biotinylated affinity ligands for 30 min at room temperature to generate affinity resins. The liganded beads were blocked with excess biotin and washed with blocking buffer (SeaBlock (Pierce), 1% BSA, 0.05% Tween 20, 1 mM DTT) to remove unbound ligand and to reduce non-specific binding. Binding reactions were assembled by combining kinase, liganded affinity beads, and test compounds in 1× binding buffer (20% SeaBlock, 0.17×PBS, 0.05% Tween 20, 6 mM DTT). Test compounds were prepared as 100× stocks in DMSO and diluted into the aqueous environment. Kds were determined using an eleven point threefold serial dilutions. DMSO or control compounds were was added to control assays lacking a test compound. Primary screen assays were performed in polypropylene 384-well plates in a final volume of 20-40 μL, while Kd determinations were performed in polystyrene 96-well plates in a final volume of 135 μL. The assay plates were incubated at room temperature with shaking for 1 hour to allow the binding reactions to reach equilibrium, and the affinity beads were washed extensively with wash buffer (1×PBS, 0.05% Tween 20) to remove unbound protein. The beads were then resuspended in elution buffer (1×PBS, 0.05% Tween […] non-biotinylated affinity ligand) and incubated at room temperature with shaking for 30 min. The kinase concentration in the eluates was measured by quantitative PCR.
# A selectivity score (S10) is a quantitative measure of selectivity of a compound against a panel of kinases. An S10 was calculated for a compound by dividing the number of kinases found to have a percent of control (DMSO) less than 10 by the total number of distinct kinases tested (excluding mutant variants). Percent of control (POC) is calculated by subtracting the signal of the control compound (POC=0) from the signal of the test compound and dividing the outcome by the signal of DMSO (POC=100) minus the signal of the control compound. For the compounds disclosed herein, S10 scores were obtained by testing the compounds at 10 μM concentration in a kinase panel containing either 386 or 392 distinct kinases.
# KIT = target: T1, KIT (Homo sapiens, UniProt P10721); assay: Competition binding assay, KIT Kd
# T1 construct: made in house
# T1 sequence (P10721 26-976): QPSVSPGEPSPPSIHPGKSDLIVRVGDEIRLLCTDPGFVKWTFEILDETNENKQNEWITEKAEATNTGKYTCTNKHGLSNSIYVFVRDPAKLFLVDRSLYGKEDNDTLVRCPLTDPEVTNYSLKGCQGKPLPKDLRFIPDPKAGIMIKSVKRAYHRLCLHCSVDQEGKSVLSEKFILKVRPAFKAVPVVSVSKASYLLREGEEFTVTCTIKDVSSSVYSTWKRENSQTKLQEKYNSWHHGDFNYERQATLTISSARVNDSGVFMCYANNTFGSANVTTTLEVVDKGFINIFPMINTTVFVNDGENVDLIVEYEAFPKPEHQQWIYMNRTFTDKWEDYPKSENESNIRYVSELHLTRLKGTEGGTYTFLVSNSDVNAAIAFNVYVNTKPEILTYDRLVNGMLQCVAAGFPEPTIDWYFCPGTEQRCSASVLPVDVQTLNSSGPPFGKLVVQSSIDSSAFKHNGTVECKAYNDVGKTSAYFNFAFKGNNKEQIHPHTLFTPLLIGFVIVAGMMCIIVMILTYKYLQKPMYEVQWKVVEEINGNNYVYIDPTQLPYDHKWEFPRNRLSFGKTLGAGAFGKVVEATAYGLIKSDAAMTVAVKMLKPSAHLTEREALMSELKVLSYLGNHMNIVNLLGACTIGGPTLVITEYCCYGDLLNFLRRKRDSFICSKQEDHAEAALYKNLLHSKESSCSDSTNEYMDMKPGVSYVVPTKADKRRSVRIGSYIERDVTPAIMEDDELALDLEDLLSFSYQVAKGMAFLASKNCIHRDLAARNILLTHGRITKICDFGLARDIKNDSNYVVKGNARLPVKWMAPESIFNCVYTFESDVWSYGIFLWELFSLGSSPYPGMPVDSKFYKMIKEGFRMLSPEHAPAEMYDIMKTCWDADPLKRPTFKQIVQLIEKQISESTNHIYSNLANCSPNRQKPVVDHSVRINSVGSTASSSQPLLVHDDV
# Outline: (§1)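 Kinases, either T7 phage fusions or HEK-293-expressed and DNA-tagged, competed with test compounds for immobilized biotinylated affinity ligand on streptavidin beads in binding buffer (20% SeaBlock, 0.17×PBS, 0.05% Tween 20, 6 mM DTT). After 1 hour at room temperature, bead-bound kinase was eluted and quantified by qPCR; Kd from eleven-point threefold dilutions.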
# FLT3 = target: T2, FLT3 (Homo sapiens, UniProt P36888); assay: Competition binding assay, FLT3 Kd
# T2 construct: made in house
# T2 sequence (P36888 27-993): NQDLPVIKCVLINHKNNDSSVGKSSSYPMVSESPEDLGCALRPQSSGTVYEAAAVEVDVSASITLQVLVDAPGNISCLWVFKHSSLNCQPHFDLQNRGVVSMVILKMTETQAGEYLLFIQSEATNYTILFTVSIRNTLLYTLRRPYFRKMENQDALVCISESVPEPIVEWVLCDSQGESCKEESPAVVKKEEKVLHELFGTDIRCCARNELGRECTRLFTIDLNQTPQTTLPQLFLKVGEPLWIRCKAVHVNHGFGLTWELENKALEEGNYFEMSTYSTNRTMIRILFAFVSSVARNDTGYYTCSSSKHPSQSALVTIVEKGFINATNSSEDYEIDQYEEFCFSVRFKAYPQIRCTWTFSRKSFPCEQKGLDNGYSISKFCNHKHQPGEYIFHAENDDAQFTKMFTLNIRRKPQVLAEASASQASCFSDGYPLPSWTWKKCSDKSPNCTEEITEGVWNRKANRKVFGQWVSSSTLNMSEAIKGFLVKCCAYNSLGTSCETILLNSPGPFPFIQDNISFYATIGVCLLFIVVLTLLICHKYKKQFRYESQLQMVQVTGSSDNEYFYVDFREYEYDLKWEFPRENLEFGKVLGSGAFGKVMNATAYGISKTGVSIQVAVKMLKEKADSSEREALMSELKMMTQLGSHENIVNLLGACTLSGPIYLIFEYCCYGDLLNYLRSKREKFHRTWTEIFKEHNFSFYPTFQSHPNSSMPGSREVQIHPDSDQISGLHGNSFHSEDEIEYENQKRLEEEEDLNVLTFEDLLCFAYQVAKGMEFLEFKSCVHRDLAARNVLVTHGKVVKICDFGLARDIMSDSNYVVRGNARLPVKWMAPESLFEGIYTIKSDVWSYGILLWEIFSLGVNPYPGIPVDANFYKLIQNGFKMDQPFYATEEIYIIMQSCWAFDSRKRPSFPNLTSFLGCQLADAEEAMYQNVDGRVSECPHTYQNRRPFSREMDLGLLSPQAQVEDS
# Outline: as §1
# CSF1R = CSF1R (Homo sapiens, UniProt P07333); assay: Competition binding assay, CSF1R Kd; design: made in house
# CSF1R, sequence (P07333 20-972): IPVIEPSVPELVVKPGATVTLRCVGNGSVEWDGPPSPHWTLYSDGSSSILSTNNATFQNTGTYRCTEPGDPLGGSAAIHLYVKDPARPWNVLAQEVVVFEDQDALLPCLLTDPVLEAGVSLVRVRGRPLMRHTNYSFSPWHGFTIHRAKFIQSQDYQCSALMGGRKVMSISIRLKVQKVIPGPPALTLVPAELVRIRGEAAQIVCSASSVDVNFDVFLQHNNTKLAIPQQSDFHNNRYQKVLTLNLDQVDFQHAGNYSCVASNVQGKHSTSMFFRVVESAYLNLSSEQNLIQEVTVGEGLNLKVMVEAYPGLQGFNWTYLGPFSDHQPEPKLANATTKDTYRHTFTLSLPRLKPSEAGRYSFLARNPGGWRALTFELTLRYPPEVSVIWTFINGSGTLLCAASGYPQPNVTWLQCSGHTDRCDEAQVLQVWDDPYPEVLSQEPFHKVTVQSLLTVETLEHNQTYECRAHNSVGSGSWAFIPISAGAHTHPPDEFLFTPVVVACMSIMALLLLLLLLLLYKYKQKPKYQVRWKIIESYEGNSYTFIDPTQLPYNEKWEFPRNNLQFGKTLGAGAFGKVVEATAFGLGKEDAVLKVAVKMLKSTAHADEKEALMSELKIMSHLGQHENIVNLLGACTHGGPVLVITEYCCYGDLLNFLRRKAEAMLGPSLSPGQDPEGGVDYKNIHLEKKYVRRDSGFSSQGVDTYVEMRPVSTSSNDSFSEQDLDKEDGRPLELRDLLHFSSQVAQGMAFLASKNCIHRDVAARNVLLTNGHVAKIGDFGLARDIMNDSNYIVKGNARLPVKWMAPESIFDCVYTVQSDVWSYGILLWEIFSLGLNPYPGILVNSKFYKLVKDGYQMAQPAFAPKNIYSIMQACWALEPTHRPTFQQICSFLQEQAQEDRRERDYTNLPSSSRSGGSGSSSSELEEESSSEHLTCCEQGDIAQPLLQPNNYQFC
# Outline: as §1
# M-NFS-60 cells = assay: M-NFS-60 cell proliferation assay (Alamar Blue); format: cell-based, mouse; settings: Mus musculus; 72 hours incubation, M-CSF 20 ng/mL; read-out: CSF1R M-NFS-60 CTB:IC50
# Outline: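 Mouse M-NFS-60 cells growing on 20 ng/mL M-CSF in RPMI/10% FBS were exposed to compounds (9 half-log concentrations, 0.5% DMSO) for 72 h at 37 °C. Viability read by Alamar Blue fluorescence (ex 560/em 590 nm, 3 h). IC50 = 50% proliferation inhibition versus control, mean of duplicates.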
Compound,Kinase specificity S(10) [1],Kd (KIT) [nM],Kd (FLT3) [nM],Kd (CSF1R) [nM],IC50 (M-NFS-60 cells) [nM]
"COc1cc2ncn(Cc3ccc4nc(N[C@@H]5CCCCC[C@H]5O)sc4c3)c2cc1OC (racemic) [Example 50, (±)-2-((6-((5,6-dimethoxy-1H-benzo[d]imidazol-1-yl)methyl)benzo[d]thiazol-2-yl)amino)cycloheptanol]",C (C>0.02),≤ 100,≤ 200,≤ 5,≤ 50
"CS(=O)(=O)O.O[C@@H]1CCCC[C@H]1Nc1nc2ccc(Cn3cnc4cccnc43)cc2s1 [Example 3, (1R,2R)-2-((6-((3H-imidazo[4,5-b]pyridin-3-yl)methyl)benzo[d]thiazol-2-yl)amino)cyclohexanol methanesulfonic acid]",B (0.01<B≤0.02),100 to 500,1000 to 5000,≤ 5,50 to 400
"COc1cc2ncn(Cc3ccc4nc(N[C@@H](C)C5CCCCC5)sc4c3)c2cc1OC [Example 33, (S)—N-(1-cyclohexylethyl)-6-((5,6-dimethoxy-1H-benzo[d]imidazol-1-yl)methyl)benzo[d]thiazol-2-amine]",C (C>0.02),≤ 100,200 to 1000,5 to 20,50 to 400
"COc1cc2ncn(Cc3ccc4nc(N[C@@H]5CCCC[C@H]5O)oc4c3)c2cc1OC [Example 34, (1R,2R)-2-((6-((5,6-dimethoxy-1H-benzo[d]imidazol-1-yl)methyl)benzo[d]oxazol-2-yl)amino)cyclohexanol]",C (C>0.02),100 to 500,≤ 200,5 to 20,50 to 400
"COc1cc2ncn(Cc3ccc4nc(NCC5CCCCC5)oc4c3)c2cc1OC [Example 35, N-(cyclohexylmethyl)-6-((5,6-dimethoxy-1H-benzo[d]imidazol-1-yl)methyl)benzo[d]oxazol-2-amine]",C (C>0.02),≤ 100,≤ 200,≤ 5,50 to 400
"Cn1cc(-c2cn(Cc3ccc4nc(N[C@@H]5CCCC[C@H]5O)sc4c3)cn2)cn1 [Example 36, (1R,2R)-2-((6-((4-(1-methyl-1H-pyrazol-4-yl)-1H-imidazol-1-yl)methyl)benzo[d]thiazol-2-yl)amino)cyclohexanol]",A (A≤0.01),500 to 2000,> 5000,5 to 20,50 to 400
"CNC(=O)c1cn(Cc2ccc3nc(N[C@@H]4CCCC[C@H]4O)sc3c2)cn1 [Example 37, 1-((2-(((1R,2R)-2-hydroxycyclohexyl)amino)benzo[d]thiazol-6-yl)methyl)-N-methyl-1H-imidazole-4-carboxamide]",A (A≤0.01),> 2000,> 5000,> 50,> 1500
"O[C@@H]1CCCC[C@H]1Nc1nc2ccc(Cc3cnc4ccccn34)cc2s1 [Example 38, (1R,2R)-2-((6-(imidazo[1,2-a]pyridin-3-ylmethyl)benzo[d]thiazol-2-yl)amino)cyclohexanol]",A (A≤0.01),500 to 2000,> 5000,20 to 50,400 to 1500
"Cn1cc(-c2cnc3c(c2)ncn3Cc2ccc3nc(N[C@@H]4CCCC[C@H]4O)sc3c2)cn1 [Example 39, (1R,2R)-2-((6-((6-(1-methyl-1H-pyrazol-4-yl)-3H-imidazo[4,5-b]pyridin-3-yl)methyl)benzo[d]thiazol-2-yl)amino)cyclohexanol]",C (C>0.02),≤ 100,≤ 200,≤ 5,≤ 50
"O[C@@H]1CCCC[C@H]1Nc1nc2ccc(Cn3cnc4cc(-c5cccnc5)cnc43)cc2s1 [Example 40, (1R,2R)-2-((6-((6-(pyridin-3-yl)-3H-imidazo[4,5-b]pyridin-3-yl)methyl)benzo[d]thiazol-2-yl)amino)cyclohexanol]",B (0.01<B≤0.02),≤ 100,≤ 200,≤ 5,≤ 50
"COc1cc2c(cc1Br)ncn2Cc1ccc2nc(N[C@@H]3CCCC[C@H]3O)sc2c1 [Example 41, (1R,2R)-2-((6-((5-bromo-6-methoxy-1H-benzo[d]imidazol-1-yl)methyl)benzo[d]thiazol-2-yl)amino)cyclohexanol]",A (A≤0.01),100 to 500,200 to 1000,5 to 20,50 to 400
"O[C@@H]1Cc2ccccc2[C@H]1Nc1nc2ccc(Cn3cnc4cc(Br)cnc43)cc2s1 [Example 42, (1R,2R)-1-((6-((6-bromo-3H-imidazo[4,5-b]pyridin-3-yl)methyl)benzo[d]thiazol-2-yl)amino)-2,3-dihydro-1H-inden-2-ol]",B (0.01<B≤0.02),≤ 100,1000 to 5000,≤ 5,50 to 400
"N#Cc1cnc2c(c1)ncn2Cc1ccc2nc(N[C@@H]3CCCC[C@H]3O)sc2c1 [Example 43, 3-((2-(((1R,2R)-2-hydroxycyclohexyl)amino)benzo[d]thiazol-6-yl)methyl)-3H-imidazo[4,5-b]pyridine-6-carbonitrile]",B (0.01<B≤0.02),100 to 500,1000 to 5000,5 to 20,50 to 400
"COc1ccn2c(Cc3ccc4nc(N[C@@H]5CCCC[C@H]5O)sc4c3)cnc2c1 [Example 44, (1R,2R)-2-((6-((7-methoxyimidazo[1,2-a]pyridin-3-yl)methyl)benzo[d]thiazol-2-yl)amino)cyclohexanol]",A (A≤0.01),500 to 2000,> 5000,5 to 20,50 to 400
"O[C@@H]1CCCC[C@H]1Nc1nc2ccc(Cn3cnc4cc(C5CC5)cnc43)cc2s1 [Example 45, (1R,2R)-2-((6-((6-cyclopropyl-3H-imidazo[4,5-b]pyridin-3-yl)methyl)benzo[d]thiazol-2-yl)amino)cyclohexanol]",B (0.01<B≤0.02),≤ 100,200 to 1000,≤ 5,≤ 50
